Measured values taken from article PMC10353390, “Biological and Structural Analyses of New Potent Allosteric Inhibitors of HIV-1 Integrase” (Antimicrobial Agents and Chemotherapy, 2023).

System: HIV-1 strains resistant to INSTIs, NRTIs, NNRTIs or PIs
Type: cell-based
Conditions: for Fold change in EC50 relative to NL4-3, E92Q / Fold change in EC50 relative to NL4-3, G140S / Fold change in EC50 relative to NL4-3, G140S/Q148H / Fold change in EC50 relative to NL4-3, N155H / Fold change in EC50 relative to NL4-3, Q148H / Fold change in EC50 relative to NL4-3, Y143R / Fold change in EC50 relative to NL4-3, E92Q/N155H (pat.) / Fold change in EC50 relative to NL4-3, G140S/Q148H (pat.) / Fold change in EC50 relative to NL4-3, T97A/N155H (pat.): INSTI-resistant; for Fold change in EC50 relative to NL4-3, E92Q / Fold change in EC50 relative to NL4-3, G140S / Fold change in EC50 relative to NL4-3, G140S/Q148H / Fold change in EC50 relative to NL4-3, N155H / Fold change in EC50 relative to NL4-3, Q148H / Fold change in EC50 relative to NL4-3, Y143R / Fold change in EC50 relative to NL4-3, K103N/Y181C: NL4-3 background; for Fold change in EC50 relative to NL4-3, E92Q/N155H (pat.) / Fold change in EC50 relative to NL4-3, G140S/Q148H (pat.) / Fold change in EC50 relative to NL4-3, T97A/N155H (pat.): primary patient-derived strain; for Fold change in EC50 relative to NL4-3, NLAY351717: NRTI-resistant clone; for Fold change in EC50 relative to NL4-3, NLAY351753: NRTI/NNRTI-resistant clone; for Fold change in EC50 relative to NL4-3, K103N/Y181C: NRTI/NNRTIs group; for Fold change in EC50 relative to NL4-3, ARP-4595 / Fold change in EC50 relative to NL4-3, ARP-4596 / Fold change in EC50 relative to NL4-3, ARP-11801 / Fold change in EC50 relative to NL4-3, ARP-11803 / Fold change in EC50 relative to NL4-3, ARP-11807 / Fold change in EC50 relative to NL4-3, ARP-11808: PI-resistant virus
Procedure: To this end, we used both recombinant viruses constructed by introducing described drug resistance mutations into NL4-3 HIV-1 clone as well as drug-resistant clinical HIV-1 isolates.
MT4 cells growing exponentially at the density of 10^6/mL were infected with HIV-1 strain NL4-3 at a multiplicity of infection (MOI) of 0.001 for 2 h in the presence of different concentrations of compounds, and the CellTiter-Glo luminescent reagent (Promega) was used to quantify cell viability as described previously ([12]).

| SMILES | Fold change in EC50 relative to NL4-3, E92Q | Fold change in EC50 relative to NL4-3, G140S | Fold change in EC50 relative to NL4-3, G140S/Q148H | Fold change in EC50 relative to NL4-3, N155H | Fold change in EC50 relative to NL4-3, Q148H | Fold change in EC50 relative to NL4-3, Y143R | Fold change in EC50 relative to NL4-3, E92Q/N155H (pat.) | Fold change in EC50 relative to NL4-3, G140S/Q148H (pat.) | Fold change in EC50 relative to NL4-3, T97A/N155H (pat.) | Fold change in EC50 relative to NL4-3, NLAY351717 | Fold change in EC50 relative to NL4-3, NLAY351753 | Fold change in EC50 relative to NL4-3, K103N/Y181C | Fold change in EC50 relative to NL4-3, ARP-4595 | Fold change in EC50 relative to NL4-3, ARP-4596 | Fold change in EC50 relative to NL4-3, ARP-11801 | Fold change in EC50 relative to NL4-3, ARP-11803 | Fold change in EC50 relative to NL4-3, ARP-11807 | Fold change in EC50 relative to NL4-3, ARP-11808 |
| --- | --- | --- | --- | --- | --- | --- | --- | --- | --- | --- | --- | --- | --- | --- | --- | --- | --- | --- |
| Cc1cn([C@H]2C[C@H](N=[N+]=[N-])[C@@H](CO)O2)c(=O)[nH]c1=O [AZT, azidothymidine] | 1 | 1 | 1 | 1 | 1 | 1 | 1 | 1 | 4 | 150 | 210 | 0.1 | 2 | 1 | 1 | 2 | 2 | 5 |
| CC(C)CN(C[C@@H](O)[C@H](Cc1ccccc1)NC(=O)O[C@H]1CO[C@H]2OCC[C@H]21)S(=O)(=O)c1ccc(N)cc1 [DRV, darunavir] |  |  | 1 |  |  |  |  |  |  | 1 | 1 | 1 | 1 | 1 | 31 | 24 | 12 | 240 |
| O=C1Nc2ccc(Cl)cc2[C@@](C#CC2CC2)(C(F)(F)F)O1 [EFV, efavirenz] | 1 | 1 | 1 | 1 | 1 | 1 | 1 | 1 | 2 | 2 | 39 | 51 | 1 | 1 | 0.5 | 1 | 2 | 1 |
